Values quoted from earlier work as cited in publication PMC10318822, “Phase 1 dose-escalation study to evaluate the safety, tolerability, pharmacokinetics, and anti-tumor activity of FCN-159 in adults with neurofibromatosis type 1-related unresectable plexiform neurofibromas” (BMC Medicine, 2023).

Assays:
[1] = test system: xenograft models (including human melanoma A375); design: method as in doi:10.1158/1538-7445.AM2020-1951; conditions: nude mouse xenograft models (including human melanoma A375); cited from earlier work
[2] = design: method as in PMID 36627544; conditions: healthy volunteers, compared with fasted state; cited from earlier work
[3] = test system: MAPK pathway (phosphorylation of MEK kinase and intracellular ERK); design: method as in doi:10.1158/1538-7445.AM2020-1951; conditions: human colon cancer cells; preventing phosphorylation of MEK kinase and intracellular ERK; cited from earlier work

Q: What does the source list for `Cn1c(=O)c(F)c(Nc2ccc(I)cc2F)c2c(=O)n(C3CC3)nc(-c3cccc(NS(=O)(=O)C4CC4)c3)c21` [FCN-159]?
A: Tumor growth [1]: Anti-tumor activity was observed; Food effect on pharmacokinetic profile [2]: food did not affect the pharmacokinetic profile; Effect on downstream MAPK pathway [3]: blocks the downstream MAPK pathway
